Experiments:
Experiment in all cases: Kinase profiling panel
Type in all cases: biochemical
PKCa = test system: PKCa
Method: (§1) Supplementary Table 2. ZT-1a kinase profiling data6.
(§2) ZT-1a was tested at 10 and 1 µM against a panel of 140 recombinant kinases in an enzymatic
(§3) activity-based assay performed by the International Centre for Kinase Profiling in the MRC
(§4) Protein Phosphorylation and Ubiquitylation Unit. Values represent % residual kinase activity

MPSK1 = test system: MPSK1
Method: as §1, §2, §3, §4

PDGFRA = test system: PDGFRA
Method: as §1, §2, §3, §4

TSSK1 = test system: TSSK1
Method: as §1, §2, §3, §4

MKK1 = test system: MKK1
Method: as §1, §2, §3, §4

TTBK1 = test system: TTBK1
Method: as §1, §2, §3, §4

TBK1 = test system: TBK1
Method: as §1, §2, §3, §4

IKKe = test system: IKKe
Method: as §1, §2, §3, §4

TAO1 = test system: TAO1
Method: as §1, §2, §3, §4

p38b MAPK = test system: p38b MAPK
Method: as §1, §2, §3, §4

RIPK2 = test system: RIPK2
Method: as §1, §2, §3, §4

JNK1 = test system: JNK1
Method: as §1, §2, §3, §4

EIF2AK3 = test system: EIF2AK3
Method: as §1, §2, §3, §4

JAK2 = test system: JAK2
Method: as §1, §2, §3, §4

PIM1 = test system: PIM1
Method: as §1, §2, §3, §4

IRR = test system: IRR
Method: as §1, §2, §3, §4

MST2 = test system: MST2
Method: as §1, §2, §3, §4

MLK3 = test system: MLK3
Method: as §1, §2, §3, §4

STK33 = test system: STK33
Method: as §1, §2, §3, §4

PKCγ = test system: PKCγ
Method: as §1, §2, §3, §4

TESK1 = test system: TESK1
Method: as §1, §2, §3, §4

CLK2 = test system: CLK2
Method: as §1, §2, §3, §4

TGFBR1 = test system: TGFBR1
Method: as §1, §2, §3, §4

FGF-R1 = test system: FGF-R1
Method: as §1, §2, §3, §4

NEK2a = test system: NEK2a
Method: as §1, §2, §3, §4

CDK2-Cyclin A = test system: CDK2-Cyclin A
Method: as §1, §2, §3, §4

DYRK1A = test system: DYRK1A
Method: as §1, §2, §3, §4

TTBK2 = test system: TTBK2
Method: as §1, §2, §3, §4

MST4 = test system: MST4
Method: as §1, §2, §3, §4

p38g MAPK = test system: p38g MAPK
Method: as §1, §2, §3, §4

p38a MAPK = test system: p38a MAPK
Method: as §1, §2, §3, §4

HIPK3 = test system: HIPK3
Method: as §1, §2, §3, §4

RSK1 = test system: RSK1
Method: as §1, §2, §3, §4

SIK3 = test system: SIK3
Method: as §1, §2, §3, §4

Aurora A = test system: Aurora A
Method: as §1, §2, §3, §4

MARK1 = test system: MARK1
Method: as §1, §2, §3, §4

CSK = test system: CSK
Method: as §1, §2, §3, §4

MAPKAP-K2 = test system: MAPKAP-K2
Method: as §1, §2, §3, §4

ABL = test system: ABL
Method: as §1, §2, §3, §4

TLK1 = test system: TLK1
Method: as §1, §2, §3, §4

MAP4K5 = test system: MAP4K5
Method: as §1, §2, §3, §4

GCK = test system: GCK
Method: as §1, §2, §3, §4

CHK1 = test system: CHK1
Method: as §1, §2, §3, §4

MNK2 = test system: MNK2
Method: as §1, §2, §3, §4

Cc1cc(C(C#N)c2ccc(Cl)cc2)c(Cl)cc1NC(=O)c1cc(Cl)ccc1O (stereo not shown) [ZT-1a, 5-chloro-N-(5-chloro-4-((4-chlorophenyl)(cyano)methyl)-2-methylphenyl)-2-hydroxybenzamide]
% residual kinase activity (PKCa; 1 µM): 97±4% | % residual kinase activity (PKCa; 10 µM): 83±2% | % residual kinase activity (MPSK1; 1 µM): 110±6% | % residual kinase activity (MPSK1; 10 µM): 105±2% | % residual kinase activity (PDGFRA; 1 µM): 84±11% | % residual kinase activity (PDGFRA; 10 µM): 80±7% | % residual kinase activity (TSSK1; 1 µM): 99±2% | % residual kinase activity (TSSK1; 10 µM): 74±6% | % residual kinase activity (MKK1; 1 µM): 106±2% | % residual kinase activity (MKK1; 10 µM): 114±17% | % residual kinase activity (TTBK1; 1 µM): 119±5% | % residual kinase activity (TTBK1; 10 µM): 102±2% | % residual kinase activity (TBK1; 1 µM): 119±10% | % residual kinase activity (TBK1; 10 µM): 94±3% | % residual kinase activity (IKKe; 1 µM): 87±13% | % residual kinase activity (IKKe; 10 µM): 59±5% | % residual kinase activity (TAO1; 1 µM): 66±2% | % residual kinase activity (TAO1; 10 µM): 104±2% | % residual kinase activity (p38b MAPK; 1 µM): 124±1% | % residual kinase activity (p38b MAPK; 10 µM): 124±0% | % residual kinase activity (RIPK2; 1 µM): 128±5% | % residual kinase activity (RIPK2; 10 µM): 120±3% | % residual kinase activity (JNK1; 1 µM): 106±4% | % residual kinase activity (JNK1; 10 µM): 110±5% | % residual kinase activity (EIF2AK3; 1 µM): 114±2% | % residual kinase activity (EIF2AK3; 10 µM): 100±3% | % residual kinase activity (JAK2; 1 µM): 125±6% | % residual kinase activity (JAK2; 10 µM): 123±8% | % residual kinase activity (PIM1; 1 µM): 108±19% | % residual kinase activity (PIM1; 10 µM): 101±8% | % residual kinase activity (IRR; 1 µM): 105±5% | % residual kinase activity (IRR; 10 µM): 95±4% | % residual kinase activity (MST2; 1 µM): 115±4% | % residual kinase activity (MST2; 10 µM): 113±2% | % residual kinase activity (MLK3; 1 µM): 119±11% | % residual kinase activity (MLK3; 10 µM): 114±3% | % residual kinase activity (STK33; 1 µM): 114±7% | % residual kinase activity (STK33; 10 µM): 100±5% | % residual kinase activity (PKCγ; 1 µM): 133±11% | % residual kinase activity (PKCγ; 10 µM): 120±8% | % residual kinase activity (TESK1; 1 µM): 109±3% | % residual kinase activity (TESK1; 10 µM): 77±10% | % residual kinase activity (CLK2; 1 µM): 68±12% | % residual kinase activity (CLK2; 10 µM): 33±45% | % residual kinase activity (TGFBR1; 1 µM): 63±9% | % residual kinase activity (TGFBR1; 10 µM): 77±5% | % residual kinase activity (FGF-R1; 1 µM): 93±6% | % residual kinase activity (FGF-R1; 10 µM): 101±15% | % residual kinase activity (NEK2a; 1 µM): 85±12% | % residual kinase activity (NEK2a; 10 µM): 91±6% | % residual kinase activity (CDK2-Cyclin A; 1 µM): 128±12% | % residual kinase activity (CDK2-Cyclin A; 10 µM): 125±6% | % residual kinase activity (DYRK1A; 1 µM): 119±7% | % residual kinase activity (DYRK1A; 10 µM): 103±1% | % residual kinase activity (TTBK2; 1 µM): 101±32% | % residual kinase activity (TTBK2; 10 µM): 98±34% | % residual kinase activity (MST4; 1 µM): 63±10% | % residual kinase activity (MST4; 10 µM): 63±0% | % residual kinase activity (p38g MAPK; 1 µM): 100±11% | % residual kinase activity (p38g MAPK; 10 µM): 100±6% | % residual kinase activity (p38a MAPK; 1 µM): 128±7% | % residual kinase activity (p38a MAPK; 10 µM): 113±2% | % residual kinase activity (HIPK3; 1 µM): 84±3% | % residual kinase activity (HIPK3; 10 µM): 76±2% | % residual kinase activity (RSK1; 1 µM): 95±2% | % residual kinase activity (RSK1; 10 µM): 87±4% | % residual kinase activity (SIK3; 1 µM): 104±9% | % residual kinase activity (SIK3; 10 µM): 88±0% | % residual kinase activity (Aurora A; 1 µM): 73±19% | % residual kinase activity (Aurora A; 10 µM): 65±1% | % residual kinase activity (MARK1; 1 µM): 104±16% | % residual kinase activity (MARK1; 10 µM): 91±5% | % residual kinase activity (CSK; 1 µM): 96±8% | % residual kinase activity (CSK; 10 µM): 106±29% | % residual kinase activity (MAPKAP-K2; 1 µM): 91±13% | % residual kinase activity (MAPKAP-K2; 10 µM): 13±7% | % residual kinase activity (ABL; 1 µM): 85±4% | % residual kinase activity (ABL; 10 µM): 68±16% | % residual kinase activity (TLK1; 1 µM): 130±13% | % residual kinase activity (TLK1; 10 µM): 124±4% | % residual kinase activity (MAP4K5; 1 µM): 95±28% | % residual kinase activity (MAP4K5; 10 µM): 76±9% | % residual kinase activity (GCK; 1 µM): 112±4% | % residual kinase activity (GCK; 10 µM): 97±3% | % residual kinase activity (CHK1; 1 µM): 111±11% | % residual kinase activity (CHK1; 10 µM): 109±8% | % residual kinase activity (MNK2; 1 µM): 100±7% | % residual kinase activity (MNK2; 10 µM): 105±3%

Source: publication PMC6946680, “Modulation of brain cation-Cl^− cotransport via the SPAK kinase inhibitor ZT-1a” (Nature Communications, 2020)
